Source: ChEMBL document CHEMBL1156142, “COX, LOX and platelet aggregation inhibitory properties of Lauraceae neolignans” (Bioorg Med Chem Lett, 2009)

Columns and labels:
Ovis aries = organism: Ovis aries; assay: Selectivity ratio of IC50 for ovine COX-1 to IC50 for ovine COX-2
[1] = Antiplatelet activity in rabbit platelets assessed as inhibition of arachidonic acid-induced platelet aggregation; type: functional, cell-based, Oryctolagus cuniculus
[2] = Antiplatelet activity in rabbit platelets assessed as inhibition of platelet activating factor-induced platelet aggregation; type: functional, cell-based, Oryctolagus cuniculus
[3] = target: T1, Prostaglandin G/H synthase 1 (Ovis aries, UniProt P05979)
T1 sequence (P05979 whole entry): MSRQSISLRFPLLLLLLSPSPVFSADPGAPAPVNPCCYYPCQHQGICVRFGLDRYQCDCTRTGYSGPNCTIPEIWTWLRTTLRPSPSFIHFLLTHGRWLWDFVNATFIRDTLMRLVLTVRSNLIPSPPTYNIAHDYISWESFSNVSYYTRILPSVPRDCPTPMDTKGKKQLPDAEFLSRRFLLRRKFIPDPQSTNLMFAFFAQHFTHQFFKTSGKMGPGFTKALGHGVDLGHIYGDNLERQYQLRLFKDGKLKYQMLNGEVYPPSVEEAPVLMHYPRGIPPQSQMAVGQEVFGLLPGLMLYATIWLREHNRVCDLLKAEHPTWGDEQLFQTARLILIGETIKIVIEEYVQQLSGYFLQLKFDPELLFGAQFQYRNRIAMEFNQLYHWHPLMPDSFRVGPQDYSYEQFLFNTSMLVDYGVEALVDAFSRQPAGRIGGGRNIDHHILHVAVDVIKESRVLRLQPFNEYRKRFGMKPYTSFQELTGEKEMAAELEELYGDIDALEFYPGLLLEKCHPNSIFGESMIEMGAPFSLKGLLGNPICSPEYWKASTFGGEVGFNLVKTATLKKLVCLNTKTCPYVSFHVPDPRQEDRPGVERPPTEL
Description: Inhibition of ovine COX-1 assessed as inhibition of transformation of AA to PGH2 by EIA

[4] = Antiplatelet activity in rabbit platelets assessed as inhibition of adenosin 5'-diphosphate-induced platelet aggregation; type: functional, cell-based; conditions: Oryctolagus cuniculus
[5] = Inhibition of potato LOX-5 assessed as inhibition of hydroperoxide production after 5 mins by EIA; set-up: species or system Solanum tuberosum
[6] = Oryctolagus cuniculus, Platelet

Ratio IC50 (Ovis aries)	IC50 [1, 6] [µM]	IC50 [2, 6] [µM]	IC50 [3] [µM]	IC50 [4] [µM]	IC50 [5] [µM]	IC50 ([1]; platelet) [µM]	IC50 ([2]; platelet) [µM]	SMILES
3.74	–	–	–	–	–	–	–	O=C(O)/C=C/c1ccc(O)c(O)c1
–	68.7	1.37	72.2	> 999	156	–	–	C=CCC1=C[C@]2(OC)[C@@H](O)[C@@](OC)(C1=O)[C@@H](c1cc(OC)c(OC)c(OC)c1)[C@@H]2C (stereo in doubt; 8) [NECTAMAZIN B]
–	–	–	152	–	42.4	43.4	1.72	C=CCC1=C[C@]2(OC)[C@@H](O)[C@@](OC)(C1=O)[C@@H](c1cc(OC)c(OC)c(OC)c1)[C@@H]2C (stereo in doubt; 9) [NECTAMAZIN B]
–	78.9	7.47	356	521	92.5	–	–	C=CCC1=C[C@]2(OC)C(=O)C(C1=O)[C@H](c1cc(OC)c(OC)c(OC)c1)[C@H]2C [4'-OXO-MACROPHYLLIN B]
15.6	58.3	75.6	88.6	148	0.199	–	–	C=CCC1=C[C@]2(OC)C(=CC1=O)O[C@@H](c1ccc(OC)c(OC)c1)[C@H]2C [(+)-DENUDATIN B]
426	290	488	366	54.6	14.3	–	–	C/C=C/c1cc(OC)c2c(c1)[C@H](C)[C@@H](c1ccc3c(c1)OCO3)O2 [(-)-LICARIN B]
146	222	65.3	223	75.6	7.75	–	–	C/C=C/c1cc(OC)c2c(c1)[C@@H](C)[C@H](c1ccc(OC)c(OC)c1)O2 [ACUMINATIN]
–	5.33	10.3	–	545	0.162	–	–	CC(=O)Oc1ccccc1C(=O)O [ASPIRIN]
–	–	–	–	–	73.4	–	–	Cc1ccc(-c2cc(C(F)(F)F)nn2-c2ccc(S(N)(=O)=O)cc2)cc1 [CELECOXIB]
–	75.6	–	165	88.9	45.6	–	–	C=CCC1=C[C@]2(OC)C(=O)[C@@](OC)(C1=O)[C@H](c1cc(OC)c3c(c1)OCO3)[C@H]2C [CINERIN A]
–	42.8	1.51	32.5	> 999	146	–	–	C=CCC1=C[C@@]2(OC)[C@H](C)[C@@H](c3cc(OC)c4c(c3)OCO4)[C@H](C1=O)[C@@H]2O [CINERIN B]
–	85.8	1.09	28.3	> 999	136	–	–	C=CCC1=C[C@]2(OC)[C@H](C)[C@@H](c3cc(OC)c4c(c3)OCO4)[C@](OC)(C1=O)[C@H]2O [CINERIN C]
–	25.6	6.63	188	–	8.84	–	–	C=CCC1=C[C@@]2(OC)C(=O)[C@](OC)([C@H](c3cc(OC)c4c(c3)OCO4)[C@H]2C)[C@H]1O [CINERIN D]
–	75.6	0.925	–	> 999	–	–	–	C[C@@H]1C(=O)O[C@H]2[C@H](O)[C@@]34[C@H]5C[C@@H](C(C)(C)C)[C@]36[C@@H](OC(=O)[C@@H]6O)O[C@@]4(C(=O)O5)[C@@]12O [GINKOLIDE B]
–	54.6	2.33	38.7	> 999	117	–	–	C=CCC1=C[C@@]2(OC)[C@H](C)[C@@H](c3ccc(OC)c(OC)c3)[C@H](C1=O)[C@@H]2O [KADSURENIN C]
12.6	5.61	0.153	25.6	38.1	0.104	–	–	C=CCC1=C[C@@]2(OC)C(=CC1=O)O[C@H](c1ccc(OC)c(OC)c1)[C@H]2C [KADSURENONE]
35.5	489	> 999	312	112	9.73	–	–	C/C=C/c1cc(OC)c2c(c1)[C@H](C)[C@@H](c1ccc(O)c(OC)c1)O2 [LICARIN A]
12.5	556	> 999	245	165	3.69	–	–	C/C=C/c1cc(OC)c2c(c1)[C@@H](C)[C@H](c1ccc(O)c(OC)c1)O2 [LICARINE A]
157	326	565	289	56.7	5.55	–	–	C/C=C/c1cc(OC)c2c(c1)[C@@H](C)[C@H](c1ccc3c(c1)OCO3)O2 [LICARINE B]
10.2	145	18.4	179	124	1.81	–	–	C=CCc1cc2c(cc1O)O[C@H](c1ccc3c(c1)OCO3)[C@H]2C [LILIFLOL A]
–	23.2	6.79	216	121	18.9	–	–	C=CCC1=C[C@]2(OC)C(=O)C([C@@H]1O)[C@H](c1cc(OC)c(OC)c(OC)c1)[C@H]2C [MACROPHYLLIN B]
–	38.7	3.28	77.9	–	0.62	–	–	C=CCC1=C[C@@]2(OC)C(=CC1=O)O[C@H](c1cc(OC)c(OC)c(OC)c1)[C@H]2C [MIRANDIN A]
–	21.6	3.78	74.6	> 999	12.8	–	–	C=CCC1=C[C@@]2(OC)[C@@H](C)[C@H](c3cc(OC)c(OC)c(OC)c3)[C@](OC)([C@H]1O)[C@H]2O [NECTAMAZIN C]
329	426	460	349	> 999	106	–	–	C=CCc1cc(OC)c2oc(-c3ccc4c(c3)OCO4)cc2c1 [NEOLIGNAN 9-NOR-7,8-DEHYDRO-ISOLICARIN B]
436	568	> 999	123	102	7.31	–	–	COc1cc(C=O)cc2c(C)c(-c3ccc4c(c3)OCO4)oc12 [OCOPHYLLALS A]
412	425	847	102	98.3	8.02	–	–	COc1cc(-c2oc3c(OC)cc(C=O)cc3c2C)cc(OC)c1OC [OCOPHYLLALS B]
–	45.6	3.08	88.6	636	256	–	–	C=CCC1=C[C@@]2(OC)[C@H](C)[C@@H](c3ccc4c(c3)OCO4)[C@H](C1=O)[C@H]2O [OCOPHYLOL A]
–	38.8	3.03	94.9	725	189	–	–	C=CCC1=C[C@@]2(OC)[C@H](C)[C@@H](c3ccc(OC)c(OC)c3)[C@H](C1=O)[C@H]2O [OCOPHYLOL B]
–	48.6	2.34	72.1	> 999	176	–	–	C=CCC1=C[C@@]2(OC)[C@H](C)[C@@H](c3cc(OC)c(OC)c(OC)c3)[C@H](C1=O)[C@H]2O [OCOPHYLOL C]
